Where two headings read alike, the source gives them in different places.
Key:
MDA-MB-231 cells = test: CellTiter-Glo assay, MDA-MB-231; format: cell-based; details: Homo sapiens; MDA-MB-231 Breast, 72 hr; read-out: IC50 (50% Inhibition of Proliferation)
Description: (§1) MDA-MB-231, HT-29, NCI-H460, NCI-H522, NCI-H69, GXF-209, HepG2, OVAR-3, PANC-1, DU-145, LNCAP, HL-60, K-562, and MOLT-4 cell lines were either obtained from the American Type Culture Collection (ATCC; Manassas, Va.), or from the National Cancer Institute (NCI; Frederick, Md.). RPMI-1640 media, L-glutamine dipeptide (HyQ SG-200), and HEPES were obtained from Hyclone (Logan, Utah).
(§2) All cell lines were routinely cultured twice weekly in RPMI-1640 medium supplemented with 2 mM L-glutamine dipeptide, 10 mM HEPES, and 10% FBS.
(§3) The adherent cell lines MDA-MB-231, HT-29, NCI-H460, NCI-H522, GXF-209, HepG2, OVAR-3, PANC-1, DU-145, and LNCAP cells were each seeded into two 96-well plates at 2,500 cells per well in a total volume of 50 uL and incubated in a 37° C. humidified 5% CO2 cell culture incubator overnight. The suspension cell lines NCI-H69, HL-60, K-562, and MOLT-4 were each seeded into two 96-well plates at 10,000 cell per well in a total volume of 50 uL and incubated in a 37° C. humidified 5% CO2 incubator overnight.
(§4) This was followed by making 2× stocks of the final concentrations required in RPMI-1640 medium. […]
(§5) Briefly, plates were removed from the incubator and placed on the bench at room temperatures for 30 minutes. […] Luminescence was then recorded using the PerkinElmer Microbeta scintillation and luminescence counter (Trilux).

NCI-H69 cells = test: CellTiter-Glo assay, NCI-H69; format: cell-based; details: Homo sapiens; NCI-H69 Lung small cell, 72 hr; read-out: IC50 (50% Inhibition of Proliferation)
Description: as §1, §2, §3, §4, §5

GXF-209 cells = test: CellTiter-Glo assay, GXF-209; format: cell-based; details: Homo sapiens; GXF-209 Stomach, 72 hr; read-out: IC50 (50% Inhibition of Proliferation)
Description: as §1, §2, §3, §4, §5

PANC-1 cells = test: CellTiter-Glo assay, PANC-1; format: cell-based; details: Homo sapiens; PANC-1 Pancreas, 72 hr; read-out: IC50 (50% Inhibition of Proliferation)
Description: as §1, §2, §3, §4, §5

DU-145 cells = test: CellTiter-Glo assay, DU-145; format: cell-based; details: Homo sapiens; DU-145 Prostate, 72 hr; read-out: IC50 (50% Inhibition of Proliferation)
Description: as §1, §2, §3, §4, §5

LNCAP cells = test: CellTiter-Glo assay, LNCAP; format: cell-based; details: Homo sapiens; LNCAP Prostate, 72 hr; read-out: IC50 (50% Inhibition of Proliferation)
Description: as §1, §2, §3, §4, §5

MOLT-4 cells = test: CellTiter-Glo assay, MOLT-4; format: cell-based; details: Homo sapiens; MOLT-4 acute lympho, 72 hr; read-out: IC50 (50% Inhibition of Proliferation)
Description: as §1, §2, §3, §4, §5

CP Control = test: Antifungal susceptibility testing (broth dilution), CP Control; format: cell-based; details: read-out: minimum inhibitory concentration (MIC)
Description: (§6) Anti-fungal testing was completed with a common lot for compounds 100 and 102.
(§7) A 10 mg portion of each powder was weighed out and added to 1 ml of sterile distilled water for compound 100 and DMSO for compound 102. The resulting concentration of […] was diluted to a working concentration of 640 μg/ml for each compound. All subsequent dilutions were also made using the respective diluents. Final testing concentrations ranged from 0.125-64 μg/ml.
(§8) A total of 23 isolates were tested to include 3 Candida albicans, 3 Candida glabrata, 3 Cryptococcus neoformans, 3 Aspergillus fumigatus, 3 Rhizopus oryzae, 3, Fusarium solani, 3 Pseudallescheria boydii, and 2 […] rubrum. All isolates were clinical isolates submitted to the Fungus Testing Laboratory for evaluation. Antifungal susceptibility testing was accomplished according to the methods outlined in the National Committee for Clinical Laboratory Standards, M-27A2, Reference Method for Broth Dilution Antifungal Susceptibility Testing of Yeasts; Approved Standard, and M38-A “Reference Method for Broth Dilution Antifungal Susceptibility Testing of Conidium-Forming Filamentous Fungi; Approved Standard”. This includes testing in RPMI-1640 with glutamine and without bicarbonate, an inoculum size of 0.5-2.5×10^3 for yeasts or 1-5×10^4 for moulds, and incubation at 35° C. for 24 and 48 hours.

C. albicans = test: Antifungal susceptibility testing (broth dilution), C. albicans; format: cell-based, Candida albicans; details: for MIC: Candida albicans, read-out: minimum inhibitory concentration (MIC)
Description: as §6, §7, §8

C. glabrata = test: Antifungal susceptibility testing (broth dilution), C. glabrata; format: cell-based, Candida glabrata; details: for MIC: Nakaseomyces glabratus, read-out: minimum inhibitory concentration (MIC)
Description: as §6, §7, §8

F. solani = test: Antifungal susceptibility testing (broth dilution), F. solani; format: cell-based, Fusarium solani; details: for MIC: Fusarium solani, read-out: minimum inhibitory concentration (MIC)
Description: as §6, §7, §8

P. boydii = test: Antifungal susceptibility testing (broth dilution), P. boydii; format: cell-based, Pseudallescheria boydii; details: for MIC: Scedosporium boydii, read-out: minimum inhibitory concentration (MIC)
Description: as §6, §7, §8

[1] = Solubility (water, lipid); format: physicochemical

| Compound | IC50 (MDA-MB-231 cells) [µM] | IC50 (NCI-H69 cells) [µM] | IC50 (GXF-209 cells) [µM] | IC50 (PANC-1 cells) [µM] | IC50 (DU-145 cells) [µM] | IC50 (LNCAP cells) [µM] | IC50 (MOLT-4 cells) [µM] | MIC (CP Control; 24 Hours) [µg/mL] | MIC (CP Control; 48 Hours) [µg/mL] | minimum inhibitory concentration (MIC) (C. albicans; isolate 07-3006, 24 Hours) [µg/mL] | minimum inhibitory concentration (MIC) (C. albicans; isolate 07-3006, 48 Hours) [µg/mL] | minimum inhibitory concentration (MIC) (C. albicans; isolate 07-3011, 24 Hours) [µg/mL] | minimum inhibitory concentration (MIC) (C. albicans; isolate 07-3011, 48 Hours) [µg/mL] | minimum inhibitory concentration (MIC) (C. glabrata; isolate 07-2965, 24 Hours) [µg/mL] | minimum inhibitory concentration (MIC) (C. glabrata; isolate 07-2965, 48 Hours) [µg/mL] | minimum inhibitory concentration (MIC) (C. glabrata; isolate 07-3013, 24 Hours) [µg/mL] | minimum inhibitory concentration (MIC) (C. glabrata; isolate 07-3013, 48 Hours) [µg/mL] | minimum inhibitory concentration (MIC) (F. solani; isolate 07-1755, 24 Hours) [µg/mL] | minimum inhibitory concentration (MIC) (F. solani; isolate 07-1755, 48 Hours) [µg/mL] | minimum inhibitory concentration (MIC) (F. solani; isolate 07-1867, 24 Hours) [µg/mL] | further results |
| --- | --- | --- | --- | --- | --- | --- | --- | --- | --- | --- | --- | --- | --- | --- | --- | --- | --- | --- | --- | --- | --- |
| CC(C)(C)OC(=O)N1CCN(C(=O)C2C(C(=O)O)[C@H]3CC[C@@H]2O3)CC1 (stereo in doubt) [Compound 102, 4-(3-Carboxy-7oxa-bicyclo[2.2.1]heptane-2-carbonyl)piperazine-1-carboxylic acid tert-butyl ester] | 6.6 | 24.6 | 5.3 | 20.7 | 13 | 0.48 | 5.6 | > 64 | > 64 | >64 | >64 | >64 | >64 | >64 | >64 | >64 | >64 | >64 | >64 | >64 | MIC (C. albicans; isolate 07-3012, 24 Hours): > 64 µg/mL; MIC (C. albicans; isolate 07-3012, 48 Hours): > 64 µg/mL; MIC (C. glabrata; isolate 07-2964, 24 Hours): > 64 µg/mL; MIC (C. glabrata; isolate 07-2964, 48 Hours): > 64 µg/mL; MIC (F. solani; isolate 07-1399, 24 Hours): > 64 µg/mL; MIC (F. solani; isolate 07-1399, 48 Hours): > 64 µg/mL; minimum inhibitory concentration (MIC) (F. solani; isolate 07-1867, 48 Hours): >64 µg/mL; MIC (P. boydii; isolate 07-1333, 24 Hours): > 64 µg/mL; MIC (P. boydii; isolate 07-1333, 48 Hours): > 64 µg/mL; minimum inhibitory concentration (MIC) (P. boydii; isolate 07-1502, 24 Hours): >64 µg/mL; minimum inhibitory concentration (MIC) (P. boydii; isolate 07-1502, 48 Hours): >64 µg/mL; minimum inhibitory concentration (MIC) (P. boydii; isolate 07-1601, 24 Hours): >64 µg/mL; minimum inhibitory concentration (MIC) (P. boydii; isolate 07-1601, 48 Hours): >64 µg/mL; Lipid solubility (in words) [1]: lipid soluble |
| CN1CCN(C(=O)C2C(C(=O)O)[C@H]3CC[C@@H]2O3)CC1 (some centres unmarked) [Compound 100, Endothall 4-Methylpiperazine Monoamide] | 9.5 | 23.9 | 7.9 | 25.1 | 16.4 | 1.5 | 5.7 | > 64 | > 64 | >64 | >64 | >64 | >64 | >64 | >64 | >64 | >64 | >64 | >64 | >64 | MIC (C. albicans; 24 h): > 64 µg/mL; MIC (C. albicans; 48 h): > 64 µg/mL; MIC (C. glabrata; 24 h): > 64 µg/mL; MIC (C. glabrata; 48 h): > 64 µg/mL; MIC (F. solani; 24 h): > 64 µg/mL; MIC (F. solani; 48 h): > 64 µg/mL; minimum inhibitory concentration (MIC) (F. solani; isolate 07-1867, 48 Hours): >64 µg/mL; MIC (P. boydii; 24 h): > 64 µg/mL; MIC (P. boydii; 48 h): > 64 µg/mL; minimum inhibitory concentration (MIC) (P. boydii; isolate 07-1502, 24 Hours): >64 µg/mL; minimum inhibitory concentration (MIC) (P. boydii; isolate 07-1502, 48 Hours): >64 µg/mL; minimum inhibitory concentration (MIC) (P. boydii; isolate 07-1601, 24 Hours): >64 µg/mL; minimum inhibitory concentration (MIC) (P. boydii; isolate 07-1601, 48 Hours): >64 µg/mL; Water solubility (in words) ([1]; own compounds): water soluble |

From patent US10023587B2, “Oxabicycloheptanes and oxabicycloheptenes, their preparation and use” (LIXTE BIOTECHNOLOGY, INC., priority 2007, dated 2018)
